# Measured values reported in patent US12441718B2, “Selective angiotensin II compounds” (VICORE PHARMA AB, priority 2021, dated 2025).
# Read-outs that look alike come from different tables or passages of the source.
# Tests used:
# [1] = Metabolic stability in pooled human liver microsomes; assay type: in vitro ADME; conditions: human, pooled human liver microsomes, pooled human liver microsomes 0.5 mg/mL, 1 μM test compound, 37° C., * rows = mean of two runs
# Summary of the method: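 Pooled human liver microsomes (0.5 mg/mL in PBS) preincubated ±1 mM NADPH at 37° C; test compound added at 10 min to 1 μM final. Samples at 0, 5, 15 and 60 min quenched in acetonitrile, parent quantified by LC-MS/MS against a standard curve (terfenadine internal standard). Initial metabolic rate calculated with and without NADPH.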
# [2] = molecular target: T1, human recombinant AT2 receptor (Homo sapiens, UniProt P50052); assay: Binding to AT2 receptor, radiometric scintillation assay (Eurofins ITEM26); conditions: for Ki: seven-point dose-response curve
# T1 construct: purchased Eurofins ITEM26 (protocol number)
# T1 sequence (P50052 1-363): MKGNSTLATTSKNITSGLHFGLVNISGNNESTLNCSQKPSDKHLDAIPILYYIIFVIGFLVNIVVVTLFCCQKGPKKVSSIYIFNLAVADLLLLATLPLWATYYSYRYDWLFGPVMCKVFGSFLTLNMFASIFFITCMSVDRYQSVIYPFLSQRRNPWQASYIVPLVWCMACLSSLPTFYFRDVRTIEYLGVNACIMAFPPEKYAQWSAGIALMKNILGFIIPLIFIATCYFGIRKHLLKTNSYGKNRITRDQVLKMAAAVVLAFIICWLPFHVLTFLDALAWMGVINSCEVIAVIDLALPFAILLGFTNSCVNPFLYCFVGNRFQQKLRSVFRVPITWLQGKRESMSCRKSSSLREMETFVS
# [3] = molecular target: T2, human recombinant AT1 receptor (Homo sapiens, UniProt P30556); assay: Binding to AT1 receptor, radiometric scintillation assay (Eurofins ITEM24); conditions: test compounds at 1 and 10 μM, ligand 125I(sar1,Ile8)-AT-II; * rows = mean of runs
# T2 construct: purchased Eurofins ITEM24 (protocol number)
# T2 sequence (P30556 1-359): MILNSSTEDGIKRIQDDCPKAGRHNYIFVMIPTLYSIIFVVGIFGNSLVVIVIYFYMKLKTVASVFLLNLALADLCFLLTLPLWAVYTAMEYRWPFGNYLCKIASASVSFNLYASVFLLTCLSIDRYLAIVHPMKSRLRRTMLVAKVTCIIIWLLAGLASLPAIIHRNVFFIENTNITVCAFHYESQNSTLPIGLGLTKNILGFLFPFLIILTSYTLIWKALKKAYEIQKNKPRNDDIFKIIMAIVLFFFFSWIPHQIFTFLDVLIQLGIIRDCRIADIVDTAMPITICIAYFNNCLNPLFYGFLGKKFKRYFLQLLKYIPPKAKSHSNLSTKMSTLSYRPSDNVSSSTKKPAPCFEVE
# CYP1A2 = molecular target: T3, CYP1A2 (Homo sapiens, UniProt P05177); assay: in vitro; assay type: in vitro ADME; conditions: human, microsomes, human liver microsomes, substrate phenacetin, read-out: CYP1A2 Inh %
# T3 construct: isoform-specific substrates incubated with human liver microsomes; tissue Eurofins ITEMG232 (protocol number); host or cells: human liver microsomes
# Procedure: The following substrates were used; CYP1A phenacetin, CYP2B36 bupropion, CYP2C8 paclitaxel and amodiaquine, CYP2C9 diclofenac, CYP2C19 omeprazole, CYP2D6 dextromethorphan, CYP3A midazolam and testosterone.
# At the end of the incubation, the formation of metabolite was monitored by HPLC-MS/MS as the peak area response.
# CYP2B6 = molecular target: T4, CYP2B6 (Homo sapiens, UniProt P20813); assay: CYP inhibition in human liver microsomes (Eurofins ITEMG232); assay type: in vitro ADME; conditions: probe bupropion, substrate bupropion, read-out: CYP2B6 Inh %
# T4 construct: isoform-specific substrates incubated with human liver microsomes; tissue Eurofins ITEMG232 (protocol number); host or cells: human liver microsomes
# T4 sequence (P20813 1-491): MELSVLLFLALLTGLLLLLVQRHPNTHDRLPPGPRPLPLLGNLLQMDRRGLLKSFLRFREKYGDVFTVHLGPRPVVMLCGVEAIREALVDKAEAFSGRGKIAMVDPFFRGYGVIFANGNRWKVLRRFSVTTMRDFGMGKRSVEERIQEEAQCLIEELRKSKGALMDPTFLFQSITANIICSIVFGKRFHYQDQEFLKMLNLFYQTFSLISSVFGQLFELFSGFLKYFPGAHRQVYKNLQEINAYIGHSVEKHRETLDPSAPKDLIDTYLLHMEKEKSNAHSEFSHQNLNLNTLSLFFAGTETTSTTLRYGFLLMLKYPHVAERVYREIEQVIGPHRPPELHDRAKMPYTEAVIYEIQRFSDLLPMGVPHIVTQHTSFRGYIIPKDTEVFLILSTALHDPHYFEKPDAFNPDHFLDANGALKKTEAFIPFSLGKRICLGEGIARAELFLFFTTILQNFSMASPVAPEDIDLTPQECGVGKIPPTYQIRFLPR
# CYP2C19 = molecular target: T5, CYP2C19 (Homo sapiens, UniProt P33261); assay: as above; assay type: in vitro ADME; conditions: human, probe omeprazole, substrate omeprazole, read-out: CYP2C19 Inh %
# T5 construct: isoform-specific substrates incubated with human liver microsomes; tissue Eurofins ITEMG232 (protocol number); host or cells: human liver microsomes
# CYP2C8 = molecular target: T6, CYP2C8 (Homo sapiens, UniProt P10632); assay: as above; assay type: in vitro ADME; conditions: human, probe paclitaxel and amodiaquine, substrate paclitaxel and amodiaquine, read-out: CYP2C8 Inh %
# T6 construct: isoform-specific substrates incubated with human liver microsomes; tissue Eurofins ITEMG232 (protocol number); host or cells: human liver microsomes
# T6 sequence (P10632 1-490): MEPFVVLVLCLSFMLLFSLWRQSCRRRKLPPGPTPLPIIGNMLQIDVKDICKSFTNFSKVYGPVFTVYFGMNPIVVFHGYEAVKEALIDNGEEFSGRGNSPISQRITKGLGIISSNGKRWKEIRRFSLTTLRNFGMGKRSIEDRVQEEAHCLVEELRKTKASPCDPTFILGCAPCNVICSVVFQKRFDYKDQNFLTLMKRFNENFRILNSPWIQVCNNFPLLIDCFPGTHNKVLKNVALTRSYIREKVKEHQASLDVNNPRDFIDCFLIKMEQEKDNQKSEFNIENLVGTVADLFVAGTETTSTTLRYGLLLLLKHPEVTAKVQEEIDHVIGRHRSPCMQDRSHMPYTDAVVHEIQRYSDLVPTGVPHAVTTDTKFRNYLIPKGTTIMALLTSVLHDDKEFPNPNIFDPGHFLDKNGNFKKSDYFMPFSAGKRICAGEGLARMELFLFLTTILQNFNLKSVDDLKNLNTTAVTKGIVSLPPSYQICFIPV
# CYP2D6 = molecular target: T7, CYP2D6 (Homo sapiens, UniProt P10635); assay: as above; assay type: in vitro ADME; conditions: probe dextromethorphan, substrate dextromethorphan, read-out: CYP2D6 Inh %
# T7 construct: isoform-specific substrates incubated with human liver microsomes; tissue Eurofins ITEMG232 (protocol number); host or cells: human liver microsomes
# CYP3A4&5 = assay: in vitro; conditions: human, human liver microsomes, probe testosterone;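 also: Read-out is the metabolite generated from the probe substrate, quantified as HPLC-MS/MS peak area once incubation ends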
# CYP2C9 = CYP2C9 (Homo sapiens, UniProt P11712); assay: CYP inhibition in human liver microsomes (Eurofins ITEMG232); assay type: in vitro ADME; parameters: isoform-specific substrates incubated with human liver microsomes; tissue Eurofins ITEMG232 (protocol number); host or cells: human liver microsomes; conditions: human, probe diclofenac, substrate diclofenac, read-out: CYP2C9 Inh %
# CYP3A4 = CYP3A4 (Homo sapiens, UniProt P08684); assay: CYP inhibition in human liver microsomes (Eurofins ITEMG232), midazolam substrate; assay type: in vitro ADME; parameters: isoform-specific substrates incubated with human liver microsomes; tissue Eurofins ITEMG232 (protocol number); host or cells: human liver microsomes; conditions: human, probe midazolam, read-out: CYP3A4 midazolam Inh %
# [4] = with 1 mM NADPH, read-out: T1/2, + NaDPH
# [5] = without NADPH, read-out: T1/2, no NaDPH
# [6] = ligand 125I CGP 42112A, * rows = mean of runs
# [7] = test compounds at 1, 10, 100 and 1000 nM, ligand 125I CGP 42112A, * rows = mean of runs, read-out: AT2 GraFit IC50
# T5 sequence (P33261 whole entry, canonical isoform): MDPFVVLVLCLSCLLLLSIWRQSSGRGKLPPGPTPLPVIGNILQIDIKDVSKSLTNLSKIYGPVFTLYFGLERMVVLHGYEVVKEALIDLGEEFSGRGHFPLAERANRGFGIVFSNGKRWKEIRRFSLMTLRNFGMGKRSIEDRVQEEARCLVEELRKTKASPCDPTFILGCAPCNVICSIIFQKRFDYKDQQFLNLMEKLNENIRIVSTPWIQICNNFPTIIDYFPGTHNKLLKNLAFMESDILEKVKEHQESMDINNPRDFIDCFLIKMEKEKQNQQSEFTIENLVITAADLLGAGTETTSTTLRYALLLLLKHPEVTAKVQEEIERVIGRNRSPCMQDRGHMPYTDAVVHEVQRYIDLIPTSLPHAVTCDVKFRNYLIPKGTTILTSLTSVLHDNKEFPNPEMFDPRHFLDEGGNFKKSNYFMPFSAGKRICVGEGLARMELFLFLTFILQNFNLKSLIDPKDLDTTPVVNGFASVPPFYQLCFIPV
# CYP2C9, sequence (P11712 whole entry, canonical isoform): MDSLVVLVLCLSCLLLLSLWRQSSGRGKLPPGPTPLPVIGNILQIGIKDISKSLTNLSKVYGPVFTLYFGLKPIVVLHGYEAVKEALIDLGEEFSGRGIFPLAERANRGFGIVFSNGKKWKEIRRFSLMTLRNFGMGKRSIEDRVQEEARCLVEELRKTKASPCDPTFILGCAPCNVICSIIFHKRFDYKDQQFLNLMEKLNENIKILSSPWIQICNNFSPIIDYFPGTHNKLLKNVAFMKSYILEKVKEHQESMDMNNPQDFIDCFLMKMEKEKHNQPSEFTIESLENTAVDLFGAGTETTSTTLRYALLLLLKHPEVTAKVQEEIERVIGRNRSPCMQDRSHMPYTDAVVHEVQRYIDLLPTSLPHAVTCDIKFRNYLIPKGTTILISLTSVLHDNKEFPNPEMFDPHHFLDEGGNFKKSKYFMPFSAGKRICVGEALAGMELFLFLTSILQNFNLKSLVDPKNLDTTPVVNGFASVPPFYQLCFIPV
# T7 sequence (P10635 whole entry, canonical isoform): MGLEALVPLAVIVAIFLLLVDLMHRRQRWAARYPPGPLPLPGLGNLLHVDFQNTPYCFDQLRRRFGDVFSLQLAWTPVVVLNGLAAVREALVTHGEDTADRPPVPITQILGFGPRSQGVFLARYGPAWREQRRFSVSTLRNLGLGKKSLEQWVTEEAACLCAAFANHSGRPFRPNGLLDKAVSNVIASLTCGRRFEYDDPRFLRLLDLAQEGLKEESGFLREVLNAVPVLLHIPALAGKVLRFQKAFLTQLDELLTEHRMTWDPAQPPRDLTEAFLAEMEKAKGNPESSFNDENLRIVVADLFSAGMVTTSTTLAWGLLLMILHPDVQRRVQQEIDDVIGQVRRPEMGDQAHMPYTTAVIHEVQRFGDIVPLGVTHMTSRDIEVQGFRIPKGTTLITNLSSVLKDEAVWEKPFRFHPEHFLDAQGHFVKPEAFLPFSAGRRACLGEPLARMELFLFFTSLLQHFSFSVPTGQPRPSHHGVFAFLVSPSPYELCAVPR
# CYP3A4, sequence (P08684 whole entry, canonical isoform): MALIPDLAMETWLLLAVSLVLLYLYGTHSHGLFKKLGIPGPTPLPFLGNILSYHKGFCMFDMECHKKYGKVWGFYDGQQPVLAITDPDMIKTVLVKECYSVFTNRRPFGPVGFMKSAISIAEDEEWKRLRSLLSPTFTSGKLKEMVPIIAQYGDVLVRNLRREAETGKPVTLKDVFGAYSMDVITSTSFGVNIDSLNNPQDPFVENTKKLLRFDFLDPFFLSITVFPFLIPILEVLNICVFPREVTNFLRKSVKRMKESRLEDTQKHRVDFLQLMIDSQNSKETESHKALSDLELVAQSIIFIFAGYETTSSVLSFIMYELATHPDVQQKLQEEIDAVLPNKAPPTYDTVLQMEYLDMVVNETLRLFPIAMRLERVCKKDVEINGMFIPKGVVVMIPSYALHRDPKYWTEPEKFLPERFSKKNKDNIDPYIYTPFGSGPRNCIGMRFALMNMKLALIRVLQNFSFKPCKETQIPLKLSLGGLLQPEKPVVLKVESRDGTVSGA
# T3 sequence (P05177 whole entry, canonical isoform): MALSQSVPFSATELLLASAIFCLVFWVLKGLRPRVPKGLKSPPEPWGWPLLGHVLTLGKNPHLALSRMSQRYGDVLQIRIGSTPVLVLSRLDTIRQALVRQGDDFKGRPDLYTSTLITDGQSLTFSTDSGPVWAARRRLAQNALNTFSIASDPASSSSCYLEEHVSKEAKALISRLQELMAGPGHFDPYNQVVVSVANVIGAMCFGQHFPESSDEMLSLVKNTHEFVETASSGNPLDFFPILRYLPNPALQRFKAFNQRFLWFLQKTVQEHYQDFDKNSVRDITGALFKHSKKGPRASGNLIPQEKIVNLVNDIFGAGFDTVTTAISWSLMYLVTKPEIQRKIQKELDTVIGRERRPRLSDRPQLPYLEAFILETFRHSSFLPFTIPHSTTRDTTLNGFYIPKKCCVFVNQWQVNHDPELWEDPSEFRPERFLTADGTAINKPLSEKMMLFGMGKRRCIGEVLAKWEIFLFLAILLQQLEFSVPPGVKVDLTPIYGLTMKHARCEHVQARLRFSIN
SMILES,"half-life at 1 μM [1, 4] [h]","half-life at 1 μM [1, 5] [h]","Ki [2, 6] [nM]","IC50 [2, 7] [nM]",IC50 [3] [nM],"IC50 ([2]; AT2 GraFit IC50, value in parentheses after <0.3, value printed in parentheses behind the bound <0.3) [nM]",inhibition at 10 µM (CYP1A2) [%],inhibition at 10 µM (CYP2B6) [%],inhibition at 10 µM (CYP2C19) [%],inhibition at 10 µM (CYP2C8) [%],inhibition at 10 µM (CYP2D6) [%],inhibition at 10 µM (CYP3A4&5) [%],inhibition at 10 µM (CYP2C9) [%],inhibition at 10 µM (CYP3A4) [%]
"CC(C)Cc1cc(-c2ccc(Cn3ccnc3C(C)C)cc2)c(S(=O)(=O)Nc2ncccn2)s1 [Example 49, 5-Isobutyl-3-(4-((2-isopropyl-1H-imidazol-1-yl)methyl)phenyl)-N-(pyrimidin-2-yl)thiophene-2-sulfonamide]",> 1,> 1,0.68,1.36,6700,–,–,–,–,–,–,–,–,–
"COc1cc(NS(=O)(=O)c2ccc(CC(C)C)cc2-c2ccc(Cn3ccnc3C(C)(C)C)c(F)c2)nc(OC)n1 [Example 35, 4′-((2-(tert-Butyl)-1H-imidazol-1-yl)methyl)-N-(2,6-dimethoxypyrimidin-4-yl)-3′-fluoro-5-isobutyl-[1,1′-biphenyl]-2-sulfonamide]",0.133,> 1,59.7,119,30800,–,–,–,–,–,–,–,–,–
"CC(C)Cc1cc(-c2ccc(Cn3ccnc3C3CC3)c(F)c2)c(S(=O)(=O)Nc2ncccn2)s1 [Example 47, 3-(4-((2-Cyclopropyl-1H-imidazol-1-yl)methyl)-3-fluorophenyl)-5-isobutyl-N-(pyrimidin-2-yl)thiophene-2-sulfonamide]",> 1,> 1,–,< 0.3,4900,0.25,–,–,–,–,–,–,–,–
"CC(C)Cc1ccc(S(=O)(=O)Nc2ncccn2)c(-c2ccc(Cn3ccnc3C(C)C)c(F)c2)c1 [Example 27, 3′-Fluoro-5-isobutyl-4′-((2-isopropyl-1H-imidazol-1-yl)methyl)-N-(pyrimidin-2-yl)-[1,1′-biphenyl]-2-sulfonamide]",> 1,> 1,0.31,0.61,–,–,17.4,15.7,22.2,21.3,13.8,25.9,31.6,28.3
"CC(C)Cc1ccc(S(=O)(=O)Nc2ncc(C(F)(F)F)cn2)c(-c2ccc(Cn3ccnc3C(C)(C)C)c(F)c2)c1 [Example 21, 4′-((2-(tert-Butyl)-1H-imidazol-1-yl)methyl)-3′-fluoro-5-isobutyl-N-(5-(trifluoromethyl)pyrimidin-2-yl)-[1,1′-biphenyl]-2-sulfonamide]",> 1,> 1,1.35,2.7,–,–,-6.4,37.9,60.2,59.1,6.8,26.4,76.8,45.8
"CCc1nccn1Cc1ccc(-c2cc(CC(C)C)ccc2S(=O)(=O)Nc2ncccn2)cc1F [Example 29, 4′-((2-Ethyl-1H-imidazol-1-yl)methyl)-3′-fluoro-5-isobutyl-N-(pyrimidin-2-yl)-[1,1′-biphenyl]-2-sulfonamide]",> 1,> 1,0.45,0.9,–,–,13.6,25,43.6,58.2,7.4,21.8,43,15.4
"CC(C)Cc1ccc(S(=O)(=O)Nc2ncc(Cl)cn2)c(-c2ccc(Cn3ccnc3C(C)(C)C)c(F)c2)c1 [Example 10, 4′-((2-(tert-Butyl)-1H-imidazol-1-yl)methyl)-N-(5-chloropyrimidin-2-yl)-3′-fluoro-5-isobutyl-[1,1′-biphenyl]-2-sulfonamide]",> 1,> 1,1.5,3,–,–,37.7,58.3,55.3,93.2,31.9,-17.5,87,32.1
"CC(C)Cc1ccc(S(=O)(=O)Nc2nccs2)c(-c2ccc(Cn3ccnc3C(C)(C)C)c(F)c2)c1 [Example 8, 4′-((2-(tert-Butyl)-1H-imidazol-1-yl)methyl)-3′-fluoro-5-isobutyl-N-(thiazol-2-yl)-[1,1′-biphenyl]-2-sulfonamide]",0.567,> 1,2.92,5.85,–,–,43,55,71.2,88.3,32.6,42.6,86.6,0.4
